71 compounds from US9802899B2, “Heterocyclic compounds as pesticides” (BAYER CROPSCIENCE AG, priority 2012, dated 2017) can be followed below.

The first series in a line: Determination of the log P values by HPLC (formic acid method). The note with it: reversed-phase HPLC column (C 18), reversed-phase column (C 18), acidic range (pH 3.4), 55° C. Type of series: physicochemical. As to the method:
1) Description of Method for Determination of the Log P Values (Formic Acid Method)
Eluents for determination in the acidic range (pH 3.4):
Eluent A: acetonitrile+1 ml of formic acid/liter. Eluent B: water+0.9 ml of formic acid/liter.
The lambda max values were determined in the maxima of the chromatographic signals using the UV spectra from 200 nm to 400 nm.
For `N#Cc1cc(F)c(-n2ccc(NC(=O)c3ccccc3C(F)(F)F)n2)nc1Cl` [Compound I-1-606, N-[1-(6-Chloro-5-cyano-3-fluoropyridin-2-yl)-1H-pyrazol-3-yl]-2-(trifluoromethyl)benzamide], the chromatographic logP (in general, a lipophilicity value derived from retention on a column) was 2.94.

With `N#Cc1ccc(-n2ccc(NC(=O)c3ccccc3C(F)(F)F)n2)nc1Cl` [Compound I-1-608, N-[1-(6-Chloro-5-cyanopyridin-2-yl)-1H-pyrazol-3-yl]-2-(trifluoromethyl)benzamide], the chromatographic logP was 3.17. Compound `O=C(Nc1ccn(-c2cccnc2Cl)n1)c1ccccc1I` [Compound I-1-139, N-[1-(2-Chloropyridin-3-yl)-1H-pyrazol-3-yl]-2-iodobenzamide] registered a chromatographic logP of 2.27. Still for that read-out and setting: in the case of `Nc1ccn(-c2cccc(F)c2F)n1` [1-(2,3-Difluorophenyl)-1H-pyrazole-3-amine] it was 1.56.

Still in this series, the particulars now being: reversed-phase column (C 18), acidic range (pH 3.4), 55° C.
For `O=C(Nc1ccn(-c2ncc(F)cc2F)n1)c1snc(Cl)c1Cl` [Compound I-1-159], the log partition coefficient (log P) (commonly the decadic logarithm of the partition coefficient of the neutral form, usually between octanol and water) is given as 3.06. The same measure, in the same setting: next, `O=C(Nc1ccn(-c2c(F)cccc2F)n1)c1ncncc1Cl` [Compound I-1-330]: 2.14. The same measure, in the same setting: in the case of `N#Cc1c(F)cccc1-n1ccc(NC(=O)c2ccccc2C(F)(F)F)n1` [Compound I-1-617] it was 2.72; in that of `O=C(Nc1ccn(-c2ncc(F)cc2Cl)n1)c1c(F)cccc1F` [Compound I-1-286], 2.33. Regarding `Cn1cnc(C(=O)Nc2ccn(-c3c(F)cccc3F)n2)c1[N+](=O)[O-]` [Compound I-1-242], the log partition coefficient (log P) worked out at 1.81. The same measure, in the same setting: next, `O=C(Nc1cnn(-c2ncccc2Cl)n1)c1ccccc1I` [Compound I-2-14]: 2.36.

For `CCOc1c(F)cccc1-n1ccc(NC(=O)c2ccccc2Br)n1` [Compound I-1-396], the “log P” value turned out to be 2.91.

Take `O=C(Nc1ccn(-c2c(Cl)cccc2Cl)n1)c1cccnc1OC(F)(F)F` [Compound I-1-226]: the log partition coefficient (log P) worked out at 3.21. Regarding `O=C(Nc1cnn(-c2ccccc2Br)n1)c1ccccc1I` [Compound I-2-33], the lipophilicity (log P) is 3.06.

For `O=C(Nc1ccn(-c2ncc(F)cc2F)n1)c1nccnc1C(F)(F)F` [Compound I-1-501], the log partition coefficient (log P) is on record as 2.20. Same read-out and setting: in the case of `O=C(Nc1ccn(-c2ncc(Cl)cc2Cl)n1)c1cc(Cl)ccc1C(F)(F)F` [Compound I-1-437] it was 2.93; in that of `O=C(Nc1ccn(-c2c(F)cccc2F)n1)c1ccccc1NC(=O)C(F)(F)F` [Compound I-1-612], 3.53. Turning to `O=C(Nc1ccn(-c2c(F)cccc2F)c1)c1occc1I` [Compound I-3-6], the “log P” value is on record as 2.96. Same read-out and setting: in the case of `O=C(Nc1ccn(-c2ncc(F)cc2F)n1)c1ncccc1Cl` [Compound I-1-504] it was 2.16; in that of `O=C(Nc1ccn(-c2ccccc2Cl)n1)c1cccnc1F` [Compound I-1-364], 2.38. Turning to `O=C(Nc1ccn(-c2cc(F)ccc2F)n1)c1cccnc1C(F)(F)F` [Compound I-1-70], the “log P” value is given as 2.60. Regarding `O=C(Nc1ccn(-c2ccccc2[N+](=O)[O-])n1)c1ccccc1C(F)(F)F` [Compound I-1-415], the lipophilicity (log P) came to 2.63.

`N#Cc1cc(F)ccc1-n1ccc(NC(=O)c2cccnc2C(F)(F)F)n1` [Compound I-1-627]: the “log P” value was 2.21. Consider `O=C(NC1=NN(c2c(F)cccc2F)CC1)c1ccccc1C(F)(F)F` [Compound I-4-7], for which the “log P” value came to 2.34. As for `O=C(Nc1ccn(-c2ncc(Cl)cc2F)n1)c1ccccc1Br` [Compound I-1-589], the “log P” value was found to be 2.78. With `O=C(Nc1ccn(-c2cc(F)c(F)cc2F)n1)c1ccccc1C(F)(F)F` [Compound I-1-191], the lipophilicity (log P) turned out to be 4.04. For the compound `O=C(Nc1ccn(-c2ncc(F)cc2F)n1)c1ccnn1C(F)F` [Compound I-1-443], the “log P” value is 2.16. In the case of `O=C(Nc1ccn(-c2ncc(F)cn2)n1)c1ccccc1I` [Compound I-1-605], the “log P” value stood at 2.05. In the case of `CC1=C(C(=O)Nc2ccn(-c3ccccc3Cl)n2)SCCO1` [Compound I-1-372], the “log P” value is given as 2.75. Still for that read-out and setting: in the case of `COc1ccccc1-n1ccc(NC(=O)c2ccccc2C(F)(F)F)n1` [Compound I-1-406] it was 2.84; in that of `O=C(Nc1cnn(-c2ncc(C(F)(F)F)cc2Cl)n1)c1ccccc1C(F)(F)F` [Compound I-2-74], 3.28. Same read-out and setting: next, `O=C(Nc1ccn(-c2ccccc2Br)n1)c1c(F)cccc1F` [Compound I-1-334]: 2.70; `O=C(Nc1ccn(-c2ccccc2Cl)n1)c1cccnc1OC(F)(F)F` [Compound I-1-344]: 3.10; `O=C(Nc1ccn(-c2ncccc2Br)n1)c1ccccc1I` [Compound I-1-554]: 2.42. Same read-out and setting: in the case of `O=C(Nc1ccn(-c2ncc(F)cc2F)n1)c1c(F)cccc1Cl` [Compound I-1-484] it was 2.38.

On to `O=C(Nc1ccn(-c2ncc(F)cc2F)n1)c1ccccc1C1CC1` [Compound I-1-486], for which the lipophilicity (log P) worked out at 2.68.

`O=C(Nc1ccn(-c2ccccn2)n1)c1ccccc1Cl` [Compound I-1-420]: the “log P” value is 2.33.

For `O=C(Nc1ccn(-c2cc(F)c(F)cc2F)n1)c1ccccc1C(F)(F)F` [Compound I-1-193], the “log P” value was found to be 3.73. Same read-out and setting: in the case of `O=C(Nc1ccn(-c2ncccc2Cl)n1)c1ccccc1I` [Compound I-1-138] it was 2.36.

As to `Cc1cn(-c2ccccc2Cl)nc1NC(=O)c1ccccc1Br` [Compound I-1-354], the “log P” value is reported as 2.86. Same read-out and setting: in the case of `O=C(Nc1nn(-c2ncc(F)cc2F)cc1Br)c1ccccc1C(F)(F)F` [Compound I-1-474] it was 2.61. With `O=C(Nc1nn(-c2c(F)cccc2F)cc1Cl)c1ccccc1C(F)(F)F` [Compound I-1-251], the lipophilicity (log P) is 2.73. The same measure, in the same setting: in the case of `CCc1cccc(F)c1C(=O)Nc1ccn(-c2c(F)cccc2F)n1` [Compound I-1-274] it was 2.85; in that of `O=C(Nc1ccn(-c2ncc(F)cc2Cl)n1)c1ccccc1C(F)(F)F` [Compound I-1-183], 2.64. On the same count and under the same terms, next, `O=C(Nc1cnn(-c2ncc(C(F)(F)F)cc2Cl)n1)c1ccccc1I` [Compound I-2-75]: 3.28; `O=C(Nc1cnn(-c2c(F)cccc2F)n1)c1ccncc1C(F)(F)F` [Compound I-2-81]: 2.36; `Cn1nc(C(F)(F)F)c(C(=O)Nc2cnn(-c3ncccc3Cl)n2)c1F` [Compound I-2-16]: 2.19. Still for that read-out and setting: in the case of `O=C(c1ccccc1C(F)(F)F)N(CC(F)(F)F)c1ccn(-c2c(F)cccc2F)n1` [Compound I-1-265] it was 3.59; in that of `CCn1nc(C)c(Br)c1C(=O)Nc1ccn(-c2c(F)cccc2F)n1` [Compound I-1-300], 3.15. In the case of `CCn1nc(C)c(Cl)c1C(=O)Nc1ccn(-c2ncc(F)cc2F)n1` [Compound I-1-527], the “log P” value was determined as 2.93.

Consider `O=C(c1ccccc1C(F)(F)F)N(C(=O)c1ccccc1C(F)(F)F)c1cnn(-c2ncccc2Cl)n1` [Compound I-2-52], for which the “log P” value is on record as 3.74. `O=C(NC1=NN(c2c(F)cccc2F)CC1)c1c(F)cccc1F` [Compound I-4-3]: the log partition coefficient (log P) was 2.59. Turning to `N#Cc1cc(F)c(-n2nc(NC(=O)c3c(F)cccc3F)c3c(F)cccc32)cc1F` [Compound I-5-11], the log partition coefficient (log P) is listed as 2.99. The same measure, in the same setting: in the case of `O=C(Nc1ccn(-c2ncccc2C(F)(F)F)n1)c1c(F)cccc1F` [Compound I-1-423] it was 2.46; in that of `CCCN(C(=O)c1ccccc1C(F)(F)F)c1ccn(-c2c(F)cccc2F)n1` [Compound I-1-261], 3.64; in that of `COc1ccccc1-n1ccc(NC(=O)c2cccnc2C(F)(F)F)n1` [Compound I-1-407], 2.37. The same measure, in the same setting: next, `O=C(Nc1ccn(-c2ccccc2Cl)n1)c1ccsc1I` [Compound I-1-47]: 3.05. As for `O=C(Nc1ccn(-c2cc(F)ccc2F)n1)c1ccsc1I` [Compound I-1-219], the “log P” value is 3.25.

Regarding `Cc1cc(NC(=O)c2cccnc2C(F)(F)F)nn1-c1ccc(F)cc1F` [Compound I-1-203], the lipophilicity (log P) amounted to 3.19.

Regarding `CCOc1cccc(Cl)c1-n1ccc(NC(=O)c2ccccc2Br)n1` [Compound I-1-398], the lipophilicity (log P) is 3.03. On the same count and under the same terms, in the case of `O=C(Nc1ccn(-c2ccccn2)n1)c1ccccc1Br` [Compound I-1-127] it was 2.36; in that of `O=C(Nc1nn(-c2c(F)cccc2F)cc1Br)c1ccccc1C(F)(F)F` [Compound I-1-252], 2.77. Still for that read-out and setting: next, `N#CCN(C(=O)c1ccccc1C(F)(F)F)c1ccn(-c2ncc(F)cc2F)n1` [Compound I-1-472]: 2.80; `Cn1nc(C(F)(F)F)c(Br)c1C(=O)Nc1ccn(-c2c(F)cccc2F)n1` [Compound I-1-303]: 3.37; `O=C(Nc1cnn(-c2ccccc2Br)n1)c1ccccc1C(F)(F)F` [Compound I-2-6]: 3.03. For `Cn1cc([N+](=O)[O-])c(C(=O)Nc2ccn(-c3ncc(F)cc3F)n2)n1` [Compound I-1-453], the log partition coefficient (log P) was found to be 1.69. In the case of `Cc1cn(-c2ccccc2Cl)nc1NC(=O)c1cccnc1Br` [Compound I-1-357], the “log P” value is 2.23. Still for that read-out and setting: next, `O=C(Nc1ccn(-c2ncc(F)cc2F)n1)c1nccnc1Cl` [Compound I-1-485]: 1.89; `Cc1cc(C(=O)Nc2ccn(-c3c(F)cccc3F)n2)n(C)n1` [Compound I-1-232]: 2.10; `O=C(Nc1ccn(-c2ccccc2[N+](=O)[O-])n1)c1ccccc1Br` [Compound I-1-418]: 2.50.

Regarding `Cn1nc(C(F)(F)F)c(C(=O)Nc2ccn(-c3ccccc3Br)n2)c1F` [Compound I-1-59], the “log P” value turned out to be 3.00.

As to `O=C(Nc1ccn(-c2ncc(Cl)cc2Cl)n1)c1ccccc1I` [Compound I-1-433], the lipophilicity (log P) came to 3.06.
